Laboratory results as given in patent US20230112418A1, “COMPOUND AND RADIOACTIVE LABELING COMPOUND” (NIHON MEDI-PHYSICS CO., LTD., priority 2020, published 2023).
Where two headings read alike, the source gives them in different places. Each block holds one compound with its values, some of them ahead of it.

Experiments:
HT-29 tumor-bearing mice = experiment: In vivo radioactivity distribution assay in HT-29 tumor-bearing mice
Text: Under 2% isoflurane anesthesia, a suspension of HT-29 cells (5×10^6 cells/mouse) expressing CA-IX was subcutaneously injected into the left shoulder of each of 5-week-old male BALB/c nude mice (purchased from SHIMIZU Laboratory Supplies CO., LTD.). The composition of the suspension was a mixture of HT-29 cells/DMEM medium (manufactured by Thermo Fisher Scientific Inc.) and a matrix product (Geltrex (registered trademark) (manufactured by Thermo Fisher) at a volume ratio of 1:1.
Thereafter, the subcutaneously injected mice were raised for 14 days in a raising room that switches day and night every 12 hours with normal food and tap water to obtain HT-29 tumor-bearing mice.
Then, a saline solution (259 kBq, 100 μL, containing 3 mg of ascorbic acid) of each of the radioactive labeled compounds of Examples 1 to 3 or a saline solution (259 kBq, 100 μL, containing 1 mg of ascorbic acid) of the radioactive labeled compound of Comparative Example 1 was injected into each of the mice via the tail vein thereof. The mice (n=5 in each group) were euthanized 1, 4, 8, 24, 48, 96, or 192 hours after the injection, blood, organs, and tumor sites were collected, and the masses thereof were measured. The amount of radioactivity was measured with a gamma counter.
(§1) The degree of accumulation of the radioactive labeled compound is indicated as a value (% injected dose/g) obtained by dividing the percentage (% ID) of the amount of radioactivity with respect to the amount of injected radioactivity (injected dose) by the mass of blood or the mass of an organ (g). […] Results are illustrated in FIG. 1.

[1] = Distribution coefficient (1-octanol/PBS); assay type: physicochemical; details: log10, 1-octanol/PBS pH 7.4, n=5
Protocol: The radioactive labeled compound (740 kBq) of any one of Examples and Comparative Examples was added to a mixed liquid of PBS (3 mL, pH 7.4 (20° C.)) and 1-octanol (3 mL), and the mixture was vortexed for two minutes and then centrifuged at 4000×g for five minutes. Thereafter, 1 mL of the 1-octanol layer and 500 μL of the PBS layer were collected, and the amount of radioactivity of each of the layers was measured with a gamma counter (n=5).
As a calculation formula of a distribution coefficient, “log10 [(amount of radioactivity of 1-octanol layer)/(amount of radioactivity of PBS layer×2)]” was used. Results are illustrated in Table 1 below as mean±standard deviation (mean±SD).
[^111In]In-PtDA (111 kBq) was added to a mixed liquid of PBS (pH 7.4, 3 mL) and 1-octanol (3 mL). The mixture was dispersed by vortexing for two minutes, and then centrifuged at 4000×g for five minutes. 1 mL of the 1-octanol layer and 1 mL of the PBS layer were collected, and the radioactivity of each of the layers was measured with a gamma counter (n=3).
As a calculation formula, “(distribution coefficient)=[…]) [(radioactivity of 1-octanol layer [kBq])/(radioactivity of PBS layer [kBq])]” was used.

CA-IX = target: T1, CA-IX (Homo sapiens, UniProt Q16790); experiment: Cell binding inhibition assay (acetazolamide as inhibitor, HT-29 cells); details: read-out: IC50 (nM, mean ± SD)
T1 construct: HT-29 cells (CA-IX highly expressing cells, purchased from Sumitomo Dainippon Pharma Co., Ltd.); host or cells: HT-29 cells
Protocol: In this evaluation, binding properties of [^111In]IS-DO2A-ALB1 to DO2A-ALB4 and [^111In]DO3A-IS1 with respect to CA-IX were evaluated.
Specifically, HT-29 cells (CA-IX highly expressing cells, purchased from Sumitomo Dainippon Pharma Co., Ltd.) were seeded together with a medium at 4.0×10^5 cells/well in a 12 well plate, and cultured at 37° C. for 24 hours in an atmosphere of 5% carbon dioxide.
Subsequently, the medium was removed, and a medium containing any one of the radioactive labeled compounds of Examples 1 to 4 and Comparative Example 1 (37 kBq/mL) was added to each well in an amount of 1 mL such that the acetazolamide concentration was 50000 to 0.00512 nM as an inhibitor, and the sample was cultured at 37° C. for two hours in an atmosphere of 5% carbon dioxide. In addition, a sample containing the radioactive labeled compound and not containing acetazolamide was also cultured under similar conditions. The experiment was performed with each concentration group at n=6.
Subsequently, the medium was removed, the residue was washed with PBS (1 mL), and cells were lysed with a 1 N sodium hydroxide aqueous solution (200 μL×2) to obtain a cell lysate. Then, the amount of radioactivity in the cell lysate and that in the medium containing the radioactive labeled compound were each measured with a gamma counter (type name: Wallac 2470 Wizard manufactured by PerkinElmer, Massachusetts, U.S.A.). Separately from this, the total protein mass (mg protein) in the cell lysate was quantified by a BCA method. […] Results are illustrated in Table 2 below as mean±standard deviation (mean±SD).
That is, the […] the calculated value of IC50, the higher affinity between the radioactive labeled compound and CA-IX.

[2] = tested on: MDA-MB-231 tumor-bearing mice; experiment: In vivo radioactivity distribution assay in MDA-MB-231 tumor-bearing mice; details: 24 hours after injection
Protocol: In a similar manner to Evaluation 3, a suspension of MDA-MB-231 cells (1×10^7 cells/mouse) having low expression of CA-IX was subcutaneously injected into the left shoulder of each of 5-week-old male BALB/c nude mice to obtain MDA-MB-231 tumor-bearing mice.
Then, a saline solution (40 kBq, 100 μL, containing 3 mg of ascorbic acid) of the radioactive labeled compound of Example 1 was injected into each of the mice via the tail vein thereof. Mice (n=5 in each group) were euthanized 24 hours after the injection, blood, organs, and tumor sites were collected, and the masses thereof were measured. The amount of radioactivity was measured with a gamma counter.
as §1, with “ID/g)” for “injected dose/g)”, “Table 3 as mean±standard deviation (n=5).” for “FIG. 1.”

[3] = tested on: LNCaP tumor transplanted mice; experiment: Suppression of tumor growth by 225Ac-labeled compound; assay type: in vivo; details: 20 kBq i.v., FIG. 9
Protocol: [^225Ac]Ac-PSMA-DA1 (20 kBq) or [^225Ac]Ac-PSMA-DB (20 kBq) obtained by the above-described method was dissolved in a 5% ethanol-containing acetate buffer (158 mM, pH 6.5, 100 μL), and the solution was injected into each of the LNCaP tumor transplanted mice via the tail vein thereof (n=6 or 5). As a control group, 100 μL of 5% ethanol-containing acetate buffer (158 mM, pH 6.5) was injected into each of the LNCaP tumor transplanted mice via the tail vein thereof (n=4).
After the injection of the ^225Ac-labeled compound, a tumor volume and a body weight were measured three times per week. The tumor volumes on the start day of injection of the ^225Ac-labeled compound were 75.3±26.0, 80.6±20.8, and 91.1±15.9 mm^3 in the [^225Ac]Ac-PSMA-DA1 injection group, the [^225Ac]Ac-PSMA-DB injection group, and the 5% ethanol-containing acetate buffer injection group, respectively.

[4] = tested on: LNCaP tumor transplanted mice; experiment: Suppression of tumor growth by 90Y-labeled compound; assay type: in vivo; details: 3.7 MBq i.v., FIG. 8
Protocol: A saline solution (100 μL) of [^90Y]Y-PSMA-DA1 (3.7 MBq) or [^90Y]Y-PSMA-DB (3.7 MBq) obtained by the above-described method was injected into each of the LNCaP tumor transplanted mice via the tail vein thereof (n=7). As a control group, 100 μL of saline was injected into each of the LNCaP tumor transplanted mice via the tail vein thereof (n=7).
After the injection of the ^90Y-labeled compound, a tumor volume and a body weight were measured three times per week. The tumor volume was calculated based on a calculation formula “(tumor volume)=[(long side)×(short side)^2/2]”.

[5] = IC50 of inhibitor acetazolamide against binding of the radioactive labeled compound to HT-29 cells, 2 h, larger value = higher affinity of labeled compound for CA-IX

SMILES: O=C([O-])CN1CCN(C(CCC(=O)NCCCC[C@H](NC(=O)N[C@@H](CCC(=O)O)C(=O)O)C(=O)O)C(=O)[O-])CCN(CC(=O)[O-])CCN(C(CCC(=O)N[C@@H](CCCCNC(=O)CCCc2ccc(I)cc2)C(=O)O)C(=O)[O-])CC1.[225Ac+3] (stereo partly shown) [[^225Ac]Ac-PSMA-DA1]
- Course of tumor growth (in words) [3]: the tumor hardly grew, and continuous growth suppression was observed up to six weeks after the injection
- Decrease in body weight (in words) [3]: transient
- Tumor growth compared with control group (in words) [3]: tumor growth was significantly suppressed

SMILES: O=C([O-])CN1CCN(C(CCC(=O)NCCCC[C@H](NC(=O)N[C@@H](CCC(=O)O)C(=O)O)C(=O)O)C(=O)[O-])CCN(CC(=O)[O-])CCN(C(CCC(=O)Nc2ccccc2)C(=O)[O-])CC1.[90Y+3] (stereo partly shown) [[^90Y]Y-PSMA-DB]
- Time after injection at which a significant difference in tumor volume vs saline group was observed [4]: ≥ 33 days

SMILES: O=C([O-])CN1CCN(C(CCC(=O)NCCCC[C@H](NC(=O)N[C@@H](CCC(=O)O)C(=O)O)C(=O)O)C(=O)[O-])CCN(CC(=O)[O-])CCN(C(CCC(=O)Nc2ccccc2)C(=O)[O-])CC1.[225Ac+3] (stereo partly shown) [[^225Ac]Ac-PSMA-DB]
- Decrease in body weight (in words) [3]: temporarily accelerated, but there was no sign of recovery thereafter
- Tumor growth compared with control group (in words) [3]: tumor growth was significantly suppressed

SMILES: NS(=O)(=O)c1nn2cc(-c3ccc(NC(=O)CN4CCN(CC(=O)O)CCN(CC(=O)O)CCN(CC(=O)O)CC4)cc3)nc2s1 [[^111In]DO3A-IS1, metal not drawn]
- Distribution coefficient (mean ± SD) [1]: −3.72 ± 0.05
- IC50 (CA-IX): 127 ± 19.6 nM

More lines, main results first:

- Amount accumulated in the tumor expressing CA-IX (in words) (HT-29 tumor-bearing mice; FIG. 1, HT-29 tumor): poor
SMILES: NS(=O)(=O)c1nn2cc(-c3ccc(NC(=O)CN4CCN(CC(=O)[O-])CCN(CC(=O)[O-])CCN(CC(=O)[O-])CC4)cc3)nc2s1.[111In+3] [[^111In]DO3A-IS1]
- Amount accumulated in the kidney (in words) (HT-29 tumor-bearing mice; FIG. 1): very large as compared with the results of Examples

- Distribution coefficient (mean ± SD) [1]: −1.70 ± 0.01
- IC50 (CA-IX; [5]): 571.4 ± 2.6 nM
- Accumulation in the HT-29 tumor (HT-29 tumor-bearing mice; value of Evaluation 3 quoted for comparison with Table 3): 10.73 % ID/g
- Radioactivity accumulated amount: Blood [2]: 5.50 ± 1.17 % ID/g
- Radioactivity accumulated amount: Brain [2]: 0.34 ± 0.03 % ID/g
- Radioactivity accumulated amount: Heart [2]: 3.12 ± 0.25 % ID/g
- Radioactivity accumulated amount: Intestinal [2]: 4.65 ± 0.48 % ID/g
- Radioactivity accumulated amount: Kidney [2]: 11.42 ± 0.65 % ID/g
- Radioactivity accumulated amount: Liver [2]: 2.64 ± 0.47 % ID/g
- Radioactivity accumulated amount: Lung [2]: 7.28 ± 0.85 % ID/g
- Radioactivity accumulated amount: Muscle [2]: 1.21 ± 0.22 % ID/g
- Radioactivity accumulated amount: Pancreas [2]: 2.27 ± 0.30 % ID/g
- Radioactivity accumulated amount: Spleen [2]: 2.04 ± 0.45 % ID/g
- Radioactivity accumulated amount: Stomach [2]: 4.44 ± 0.48 % ID
- Radioactivity accumulated amount: Tumor (MDA-MB-231) [2]: 5.05 ± 0.59 % ID/g
- Tumor/blood radioactivity ratio [2]: 0.94 ± 0.17
- Tumor/kidney radioactivity ratio [2]: 0.44 ± 0.05
- Tumor/muscle radioactivity ratio [2]: 4.22 ± 0.47
SMILES: NS(=O)(=O)c1nn2cc(-c3ccc(NC(=O)CN4CCN(CC(=O)O)CCN(CC(=O)N[C@@H](CCCCNC(=O)CCCc5ccc(I)cc5)C(=O)O)CCN(CC(=O)O)CC4)cc3)nc2s1.[111In+3] [[^111In]IS-DO2A-ALB1]

- Distribution coefficient (mean ± SD) [1]: −2.36 ± 0.01
- IC50 (CA-IX; [5]): 105 ± 8 nM
SMILES: NS(=O)(=O)c1nn2cc(-c3ccc(NC(=O)CN4CCN(CC(=O)O)CCN(CC(=O)N[C@@H](CCCCNC(=O)CCCc5ccccc5)C(=O)O)CCN(CC(=O)O)CC4)cc3)nc2s1.[111In+3] [[^111In]IS-DO2A-ALB4, [^111In] indium(III) (S)-2,2′-(−(2-((1-carboxy-5-(4-phenylbutanamide)pentyl)amino)-2-oxoethyl)-10-(2-oxo-2-((4-(2-sulfamoylimidazo[2,1-b][1,3,4]thiadiazol-6-yl)phenyl)amino)ethyl)-1,4,7,10-tetraazacyclododecane-1,7-diyl) diacetic acid]

- Distribution coefficient (mean ± SD) [1]: −1.90 ± 0.01
- IC50 (CA-IX; [5]): 288 ± 45.7 nM
SMILES: NS(=O)(=O)c1nn2cc(-c3ccc(NC(=O)CN4CCN(CC(=O)O)CCN(CC(=O)N[C@@H](CCCCNC(=O)CCCc5ccc(Br)cc5)C(=O)O)CCN(CC(=O)O)CC4)cc3)nc2s1.[111In+3] [[^111In]IS-DO2A-ALB3]

- Distribution coefficient (mean ± SD) [1]: −2.16 ± 0.04
- IC50 (CA-IX; [5]): 165 ± 60.6 nM
SMILES: Cc1ccc(CCCC(=O)NCCCC[C@H](NC(=O)CN2CCN(CC(=O)O)CCN(CC(=O)Nc3ccc(-c4cn5nc(S(N)(=O)=O)sc5n4)cc3)CCN(CC(=O)O)CC2)C(=O)O)cc1.[111In+3] [[^111In]IS-DO2A-ALB2, [^111In] indium(III) (S)-2,2′-(4-(2-((1-carboxy-5-(4-(4-tolyl)butanamide)pentyl)amino)-2-oxoethyl)-10-(2-oxo-2-((4-(2-sulfamoylimidazo[2,1-b][1,3,4]thiadiazol-6-yl)phenyl)amino)ethyl)-1,4,7,10-tetraazacyclododecane-1,7-diyl) diacetic acid]
